Laboratory results: patent US20130123360A1, “METHODS AND USES RELATING TO THE IDENTIFICATION OF COMPOUND ASSOCIATED WITH BACTERIAL INFECTION” (SANOFI-AVENTIS DEUTSCHLAND GMBH, priority 2010, published 2013)
Where “and” joins values, the source holds several entries; their conditions need not be identical. Equal values may be shown once. Read-outs that look alike come from different tables or passages of the source.

What was measured:
PqsD protein [1] = biological target: T1, PqsD protein (Pseudomonas aeruginosa, UniProt P20582); assay: Determination of kinetic parameters of PqsD (HHQ formation, HPLC-MS2); format: biochemical, Pseudomonas aeruginosa UCBPP-PA14
T1 construct: The 1-kb NdeI-EcoRI fragment of pqsD was cloned between the NdeI and EcoRI sites of pET28b(+), resulting in pET28b(+)-pqsD; fused on or other part: N-terminal His tag from pET28b(+)
T1 sequence (P20582 1-337): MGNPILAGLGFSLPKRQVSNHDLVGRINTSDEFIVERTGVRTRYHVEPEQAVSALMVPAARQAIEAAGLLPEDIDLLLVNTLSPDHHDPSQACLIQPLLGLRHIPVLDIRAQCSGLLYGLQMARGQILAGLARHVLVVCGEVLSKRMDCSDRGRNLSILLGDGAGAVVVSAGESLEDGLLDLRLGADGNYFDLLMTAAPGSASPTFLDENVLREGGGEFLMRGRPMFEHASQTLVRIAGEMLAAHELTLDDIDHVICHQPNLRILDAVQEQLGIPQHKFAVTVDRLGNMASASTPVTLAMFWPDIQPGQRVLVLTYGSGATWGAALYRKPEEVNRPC
Experimental: Experimental protocol. […] The carbon-carbon bond formation between carbons 3 and 4 of the quinoline ring is likely to be catalyzed by one of the proteins PqsB, PqsC or PqsD which show all homology to the β-ketoacyl-acyl carrier protein synthase III family. To test of whether PqsD is necessary for HHQ formation, we purified recombinant PqsD protein and tried to readjust HHQ formation in vitro. The heterologous protein was incubated with anthraniloyl-CoA and 3-oxodecanoic acid and the reaction was analyzed by HPLC-MS.
HHQ quantification by HPLC-MS^2—HPLC-MS analysis was carried out using a HPLC system from the Agilent 1100 series coupled to a Brucker Daltonics HCTultra ESI-MS iontrap instrument operated in positive ionization mode. For separation a Onyx Monolythic C18 column (50×2 mm, Phenomenex) was used. […] For HHQ quantification the signal intensities of fragment ion 159.0 Da created by fragmentation of 244.0 Da were used. For creation of the standard curve HHQ standards containing 1, 5, 10, 20, 50, 100 and 200 ng ml^−1 were measured.
The reaction mixtures contained 50 mM Tris-HCl, pH 8.0, PqsD protein (1 μg), 0.2 mM anthraniloyl-CoA and 3-oxodecanoic acid ranging in concentration from 0.02 to 2 mM in a total volume of 50 μl. […] HHQ was quantified by HPLC by injecting 10 μl of the reaction mixture. […]

PqsD protein [2] = biological target: T1, PqsD protein; assay: Inhibition of HHQ formation by PqsD in vitro (HPLC-MS2 quantification of HHQ); format: biochemical, Pseudomonas aeruginosa UCBPP-PA14; settings: 0.2 mM anthraniloyl-CoA, 0.35 mM 3-oxodecanoic acid, 1 μg PqsD, 2 min preincubation, 2 min at 37° C., pH 8.0
Experimental: Experimental protocol. With the PqsD assay established so far, it is possible to screen for possible inhibitors of HHQ formation by PqsD in vitro. For this purpose the concentrations of anthraniloyl-CoA, 3-oxodecanoic acid and PqsD protein are assigned to fixed values. At first PqsD, anthraniloyl-CoA and the compound to be tested are preincubated for a fixed period. The putative inhibitor is added to the assay in increasing concentrations. The reaction is started by the addition of 3-oxodecanoic acid and incubated for a fixed period. Then the reaction is quenched by the addition of methanol to a final concentration of 50 percent. For each reaction the HHQ formation is quantified by HPLC/MS^2. By comparing the amounts of HHQ formed in presence of the different concentrations of the inhibitor to that of a control reaction without inhibitor, it can be calculated for the inhibitor concentration at which HHQ formation is 50 percent of the control reaction (IC50). […]
HHQ quantification by HPLC-MS^2—HPLC-MS analysis was carried out using a HPLC system from the Agilent 1100 series coupled to a Brucker Daltonics HCTultra ESI-MS iontrap instrument operated in positive ionization mode. […] For HHQ quantification the signal intensities of fragment ion 159.0 Da created by fragmentation of 244.0 Da were used. […]

CCCCCCCC(=O)CC(=O)O [3-oxodecanoic acid]
Km (PqsD protein [1]; fixed anthraniloyl-CoA 200 μM, varied 3-oxodecanoic acid 0.02 to 2 mM, 37° C., pH 8.0, triplicates, read-out: Km value of PqsD for 3-oxodecanoic acid): 562 ± 91 µM
Km (PqsD protein [1]; fixed anthraniloyl-CoA, varied 3-oxodecanoic acid concentrations, FIG. 4, read-out: Km value of PqsD (figure legend)): 560 µM

O=C(Nc1ccccc1C(=O)O)c1ccc(-c2ccccc2)c(Oc2ccccc2)c1 [2-[(2-phenoxybiphenyl-4-carbonyl)amino]benzoic acid]
IC50 (PqsD protein [2]): 35 µM and ~35 µM
